In ChEMBL document CHEMBL4414676, “Quinazoline-Containing Indole Alkaloids from the Marine-Derived Fungus Aspergillus sp. HNMF114” (J Nat Prod, 2019):
Active and inactive are the calls of the source. The calls are words filed in the database; no cut-off is given here.

system: SGC-7901; assay: Antiproliferative activity against human SGC7901 cells after 24 to 72 hrs by MTT assay; format: functional, cell-based

Q: With CCC(=O)O[C@H](c1nc2ccccc2c(=O)n1[C@@H]1C[C@]2(OC1=O)c1ccccc1N1C(=O)C(C)(C)N(O)[C@H]12)C(C)C as the molecule, how does the Activity read?
A: inactive

Q: For CC(C)[C@@]1(O)NC(=O)[C@@H](C[C@]2(O)c3ccccc3N3C(=O)C(C)(C)N(O)[C@H]32)n2c1nc1ccccc1c2=O, which Activity is on record?
A: inactive

Q: With O=C1N[C@@H]2c3nc4ccccc4c(=O)n3[C@@H]1C[C@@]21C(=O)Nc2ccccc21 as the molecule, how does the Activity read?
A: inactive

Q: With CC(C)[C@H](O)c1nc2ccccc2c(=O)n1[C@H]1C[C@]2(OC1=O)c1ccccc1N1C(=O)C(C)(C)N(S(C)(=O)=O)[C@H]12 as the molecule, how does the Activity read?
A: inactive

Q: With CC(C)[C@@H]1NC(=O)[C@@H](C[C@]2(O)c3ccccc3N3C(=O)C(C)(C)N[C@H]32)n2c1nc1ccccc1c2=O as the molecule, how does the Activity read?
A: inactive

Q: Which Activity does the source give for CC(=O)O[C@H](c1nc2ccccc2c(=O)n1[C@@H]1C[C@]2(OC1=O)c1ccccc1N1C(=O)C(C)(C)N[C@H]12)C(C)C here?
A: inactive

Q: Which Activity does the source give for CC(=O)OC(c1nc2ccccc2c(=O)n1[C@@H]1C[C@]2(OC1=O)C(=O)Nc1ccccc12)C(C)C (stereo partly specified) here?
A: inactive

Q: For CC1(C)C(=O)N2c3ccccc3[C@@]3(C[C@H](n4cnc5ccccc5c4=O)C(=O)O3)[C@@H]2N1O, which Activity is on record?
A: inactive

system: Streptococcus agalactiae; assay: Antibacterial activity against Streptococcus agalactiae after 24 hrs by two fold dilution assay; format: functional, organism-based

Q: Which Activity does the source give for CCC(=O)O[C@H](c1nc2ccccc2c(=O)n1[C@@H]1C[C@]2(OC1=O)c1ccccc1N1C(=O)C(C)(C)N(O)[C@H]12)C(C)C here?
A: inactive

Q: With CC(C)[C@@]1(O)NC(=O)[C@@H](C[C@]2(O)c3ccccc3N3C(=O)C(C)(C)N(O)[C@H]32)n2c1nc1ccccc1c2=O as the molecule, how does the Activity read?
A: inactive

Q: For O=C1N[C@@H]2c3nc4ccccc4c(=O)n3[C@@H]1C[C@@]21C(=O)Nc2ccccc21, which Activity is on record?
A: inactive

Q: With CC(C)[C@H](O)c1nc2ccccc2c(=O)n1[C@H]1C[C@]2(OC1=O)c1ccccc1N1C(=O)C(C)(C)N(S(C)(=O)=O)[C@H]12 as the molecule, how does the Activity read?
A: inactive

Q: For CC(C)[C@@H]1NC(=O)[C@@H](C[C@]2(O)c3ccccc3N3C(=O)C(C)(C)N[C@H]32)n2c1nc1ccccc1c2=O, which Activity is on record?
A: inactive

Q: With CC(=O)O[C@H](c1nc2ccccc2c(=O)n1[C@@H]1C[C@]2(OC1=O)c1ccccc1N1C(=O)C(C)(C)N[C@H]12)C(C)C as the molecule, how does the Activity read?
A: inactive

Q: With CC(=O)OC(c1nc2ccccc2c(=O)n1[C@@H]1C[C@]2(OC1=O)C(=O)Nc1ccccc12)C(C)C (stereo partly specified) as the molecule, how does the Activity read?
A: inactive

Q: With CC1(C)C(=O)N2c3ccccc3[C@@]3(C[C@H](n4cnc5ccccc5c4=O)C(=O)O3)[C@@H]2N1O as the molecule, how does the Activity read?
A: inactive

system: not listed separately; assay: Inhibition of quorum sensing in C6-HSL-induced Chromobacterium violaceum CV026 assessed as […] by measuring minimum inhibitory dose per well after 18 hrs by well diffusion method

Q: With CC(=O)OC(c1nc2ccccc2c(=O)n1[C@@H]1C[C@]2(OC1=O)C(=O)Nc1ccccc12)C(C)C (stereo partly specified) as the molecule, how does the MIC read?
A: 32 µg

Q: Which MIC does the source give for O=C1C=C(Br)/C(=C/Br)O1 here?
A: 1 µg

system: A549; assay: Antiproliferative activity against human A549 cells after 24 to 72 hrs by MTT assay; format: functional, cell-based

Q: For CCC(=O)O[C@H](c1nc2ccccc2c(=O)n1[C@@H]1C[C@]2(OC1=O)c1ccccc1N1C(=O)C(C)(C)N(O)[C@H]12)C(C)C, which Activity is on record?
A: inactive

Q: With CC(C)[C@@]1(O)NC(=O)[C@@H](C[C@]2(O)c3ccccc3N3C(=O)C(C)(C)N(O)[C@H]32)n2c1nc1ccccc1c2=O as the molecule, how does the Activity read?
A: inactive

Q: With O=C1N[C@@H]2c3nc4ccccc4c(=O)n3[C@@H]1C[C@@]21C(=O)Nc2ccccc21 as the molecule, how does the Activity read?
A: inactive

Q: Which Activity does the source give for CC(C)[C@H](O)c1nc2ccccc2c(=O)n1[C@H]1C[C@]2(OC1=O)c1ccccc1N1C(=O)C(C)(C)N(S(C)(=O)=O)[C@H]12 here?
A: inactive

Q: For CC(C)[C@@H]1NC(=O)[C@@H](C[C@]2(O)c3ccccc3N3C(=O)C(C)(C)N[C@H]32)n2c1nc1ccccc1c2=O, which Activity is on record?
A: inactive

Q: For CC(=O)O[C@H](c1nc2ccccc2c(=O)n1[C@@H]1C[C@]2(OC1=O)c1ccccc1N1C(=O)C(C)(C)N[C@H]12)C(C)C, which Activity is on record?
A: inactive

Q: Which Activity does the source give for CC(=O)OC(c1nc2ccccc2c(=O)n1[C@@H]1C[C@]2(OC1=O)C(=O)Nc1ccccc12)C(C)C (stereo partly specified) here?
A: inactive

Q: With CC1(C)C(=O)N2c3ccccc3[C@@]3(C[C@H](n4cnc5ccccc5c4=O)C(=O)O3)[C@@H]2N1O as the molecule, how does the Activity read?
A: inactive

system: Staphylococcus aureus; assay: Antibacterial activity against Staphylococcus aureus after 24 hrs by two fold dilution assay; format: functional, organism-based

Q: For CCC(=O)O[C@H](c1nc2ccccc2c(=O)n1[C@@H]1C[C@]2(OC1=O)c1ccccc1N1C(=O)C(C)(C)N(O)[C@H]12)C(C)C, which Activity is on record?
A: inactive

Q: Which Activity does the source give for CC(C)[C@@]1(O)NC(=O)[C@@H](C[C@]2(O)c3ccccc3N3C(=O)C(C)(C)N(O)[C@H]32)n2c1nc1ccccc1c2=O here?
A: inactive

Q: Which Activity does the source give for O=C1N[C@@H]2c3nc4ccccc4c(=O)n3[C@@H]1C[C@@]21C(=O)Nc2ccccc21 here?
A: inactive

Q: With CC(C)[C@H](O)c1nc2ccccc2c(=O)n1[C@H]1C[C@]2(OC1=O)c1ccccc1N1C(=O)C(C)(C)N(S(C)(=O)=O)[C@H]12 as the molecule, how does the Activity read?
A: inactive

Q: For CC(C)[C@@H]1NC(=O)[C@@H](C[C@]2(O)c3ccccc3N3C(=O)C(C)(C)N[C@H]32)n2c1nc1ccccc1c2=O, which Activity is on record?
A: inactive

Q: For CC(=O)O[C@H](c1nc2ccccc2c(=O)n1[C@@H]1C[C@]2(OC1=O)c1ccccc1N1C(=O)C(C)(C)N[C@H]12)C(C)C, which Activity is on record?
A: inactive

Q: With CC(=O)OC(c1nc2ccccc2c(=O)n1[C@@H]1C[C@]2(OC1=O)C(=O)Nc1ccccc12)C(C)C (stereo partly specified) as the molecule, how does the Activity read?
A: inactive

Q: Which Activity does the source give for CC1(C)C(=O)N2c3ccccc3[C@@]3(C[C@H](n4cnc5ccccc5c4=O)C(=O)O3)[C@@H]2N1O here?
A: inactive

system: HeLa; assay: Antiproliferative activity against human HeLa cells after 24 to 72 hrs by MTT assay; format: functional, cell-based

Q: With CCC(=O)O[C@H](c1nc2ccccc2c(=O)n1[C@@H]1C[C@]2(OC1=O)c1ccccc1N1C(=O)C(C)(C)N(O)[C@H]12)C(C)C as the molecule, how does the Activity read?
A: inactive

Q: With CC(C)[C@@]1(O)NC(=O)[C@@H](C[C@]2(O)c3ccccc3N3C(=O)C(C)(C)N(O)[C@H]32)n2c1nc1ccccc1c2=O as the molecule, how does the Activity read?
A: inactive

Q: With O=C1N[C@@H]2c3nc4ccccc4c(=O)n3[C@@H]1C[C@@]21C(=O)Nc2ccccc21 as the molecule, how does the Activity read?
A: inactive

Q: With CC(C)[C@H](O)c1nc2ccccc2c(=O)n1[C@H]1C[C@]2(OC1=O)c1ccccc1N1C(=O)C(C)(C)N(S(C)(=O)=O)[C@H]12 as the molecule, how does the Activity read?
A: inactive

Q: Which Activity does the source give for CC(C)[C@@H]1NC(=O)[C@@H](C[C@]2(O)c3ccccc3N3C(=O)C(C)(C)N[C@H]32)n2c1nc1ccccc1c2=O here?
A: inactive

Q: For CC(=O)O[C@H](c1nc2ccccc2c(=O)n1[C@@H]1C[C@]2(OC1=O)c1ccccc1N1C(=O)C(C)(C)N[C@H]12)C(C)C, which Activity is on record?
A: inactive

Q: For CC(=O)OC(c1nc2ccccc2c(=O)n1[C@@H]1C[C@]2(OC1=O)C(=O)Nc1ccccc12)C(C)C (stereo partly specified), which Activity is on record?
A: inactive

Q: Which Activity does the source give for CC1(C)C(=O)N2c3ccccc3[C@@]3(C[C@H](n4cnc5ccccc5c4=O)C(=O)O3)[C@@H]2N1O here?
A: inactive

system: Bacillus subtilis; assay: Antibacterial activity against Bacillus subtilis after 24 hrs by two fold dilution assay; format: functional, organism-based

Q: Which Activity does the source give for CCC(=O)O[C@H](c1nc2ccccc2c(=O)n1[C@@H]1C[C@]2(OC1=O)c1ccccc1N1C(=O)C(C)(C)N(O)[C@H]12)C(C)C here?
A: inactive

Q: With CC(C)[C@@]1(O)NC(=O)[C@@H](C[C@]2(O)c3ccccc3N3C(=O)C(C)(C)N(O)[C@H]32)n2c1nc1ccccc1c2=O as the molecule, how does the Activity read?
A: inactive

Q: For O=C1N[C@@H]2c3nc4ccccc4c(=O)n3[C@@H]1C[C@@]21C(=O)Nc2ccccc21, which Activity is on record?
A: inactive

Q: For CC(C)[C@H](O)c1nc2ccccc2c(=O)n1[C@H]1C[C@]2(OC1=O)c1ccccc1N1C(=O)C(C)(C)N(S(C)(=O)=O)[C@H]12, which Activity is on record?
A: inactive

Q: For CC(C)[C@@H]1NC(=O)[C@@H](C[C@]2(O)c3ccccc3N3C(=O)C(C)(C)N[C@H]32)n2c1nc1ccccc1c2=O, which Activity is on record?
A: inactive

Q: With CC(=O)O[C@H](c1nc2ccccc2c(=O)n1[C@@H]1C[C@]2(OC1=O)c1ccccc1N1C(=O)C(C)(C)N[C@H]12)C(C)C as the molecule, how does the Activity read?
A: inactive

Q: For CC(=O)OC(c1nc2ccccc2c(=O)n1[C@@H]1C[C@]2(OC1=O)C(=O)Nc1ccccc12)C(C)C (stereo partly specified), which Activity is on record?
A: inactive

Q: Which Activity does the source give for CC1(C)C(=O)N2c3ccccc3[C@@]3(C[C@H](n4cnc5ccccc5c4=O)C(=O)O3)[C@@H]2N1O here?
A: inactive

system: K562; assay: Antiproliferative activity against human K562 cells after 24 to 72 hrs by MTT assay; format: functional, cell-based

Q: With CCC(=O)O[C@H](c1nc2ccccc2c(=O)n1[C@@H]1C[C@]2(OC1=O)c1ccccc1N1C(=O)C(C)(C)N(O)[C@H]12)C(C)C as the molecule, how does the Activity read?
A: inactive

Q: With CC(C)[C@@]1(O)NC(=O)[C@@H](C[C@]2(O)c3ccccc3N3C(=O)C(C)(C)N(O)[C@H]32)n2c1nc1ccccc1c2=O as the molecule, how does the Activity read?
A: inactive

Q: With O=C1N[C@@H]2c3nc4ccccc4c(=O)n3[C@@H]1C[C@@]21C(=O)Nc2ccccc21 as the molecule, how does the Activity read?
A: inactive

Q: With CC(C)[C@H](O)c1nc2ccccc2c(=O)n1[C@H]1C[C@]2(OC1=O)c1ccccc1N1C(=O)C(C)(C)N(S(C)(=O)=O)[C@H]12 as the molecule, how does the Activity read?
A: inactive

Q: With CC(C)[C@@H]1NC(=O)[C@@H](C[C@]2(O)c3ccccc3N3C(=O)C(C)(C)N[C@H]32)n2c1nc1ccccc1c2=O as the molecule, how does the Activity read?
A: inactive

Q: For CC(=O)O[C@H](c1nc2ccccc2c(=O)n1[C@@H]1C[C@]2(OC1=O)c1ccccc1N1C(=O)C(C)(C)N[C@H]12)C(C)C, which Activity is on record?
A: inactive

Q: For CC(=O)OC(c1nc2ccccc2c(=O)n1[C@@H]1C[C@]2(OC1=O)C(=O)Nc1ccccc12)C(C)C (stereo partly specified), which Activity is on record?
A: inactive

Q: For CC1(C)C(=O)N2c3ccccc3[C@@]3(C[C@H](n4cnc5ccccc5c4=O)C(=O)O3)[C@@H]2N1O, which Activity is on record?
A: inactive

system: Escherichia coli; assay: Antibacterial activity against Escherichia coli after 24 hrs by two fold dilution assay; format: functional, organism-based

Q: For CCC(=O)O[C@H](c1nc2ccccc2c(=O)n1[C@@H]1C[C@]2(OC1=O)c1ccccc1N1C(=O)C(C)(C)N(O)[C@H]12)C(C)C, which Activity is on record?
A: inactive

Q: Which Activity does the source give for CC(C)[C@@]1(O)NC(=O)[C@@H](C[C@]2(O)c3ccccc3N3C(=O)C(C)(C)N(O)[C@H]32)n2c1nc1ccccc1c2=O here?
A: inactive

Q: For O=C1N[C@@H]2c3nc4ccccc4c(=O)n3[C@@H]1C[C@@]21C(=O)Nc2ccccc21, which Activity is on record?
A: inactive

Q: With CC(C)[C@H](O)c1nc2ccccc2c(=O)n1[C@H]1C[C@]2(OC1=O)c1ccccc1N1C(=O)C(C)(C)N(S(C)(=O)=O)[C@H]12 as the molecule, how does the Activity read?
A: inactive

Q: Which Activity does the source give for CC(C)[C@@H]1NC(=O)[C@@H](C[C@]2(O)c3ccccc3N3C(=O)C(C)(C)N[C@H]32)n2c1nc1ccccc1c2=O here?
A: inactive

Q: Which Activity does the source give for CC(=O)O[C@H](c1nc2ccccc2c(=O)n1[C@@H]1C[C@]2(OC1=O)c1ccccc1N1C(=O)C(C)(C)N[C@H]12)C(C)C here?
A: inactive

Q: Which Activity does the source give for CC(=O)OC(c1nc2ccccc2c(=O)n1[C@@H]1C[C@]2(OC1=O)C(=O)Nc1ccccc12)C(C)C (stereo partly specified) here?
A: inactive

Q: For CC1(C)C(=O)N2c3ccccc3[C@@]3(C[C@H](n4cnc5ccccc5c4=O)C(=O)O3)[C@@H]2N1O, which Activity is on record?
A: inactive
